Results on one compound are retold here after US20180369203A1, “METHODS OF TREATING CANCER BY ADMINISTERING A MEK INHIBITOR IN COMBINATION WITH A PROTEASOME INHIBITOR” (The Jackson Laboratory, priority 2015, published 2018).

One test concerns GR-GFP. Nature of the test: GR-GFP protein stability in HEK293T cells (immunoblotting). Format: cell-based. The settings on record: 100 nM Bortezomib, 4 hrs. From the text:
This figure is related to FIG. 4. (A) HSF1 stabilizes GR-GFP proteins. Both GR-GFP and HA-Ub-K48 plasmids were co-transfected with LacZ or FLAG-HSF1 plasmids into HEK293T cells stably expressing scramble or HSF1-targeting shRNAs. HA-Ub-K48 plasmids encode a mutant ubiquitin that can be conjugated to protein substrates only via lysine 48. GFP-GR proteins were precipitated and ubiquitination was detected by anti-HA immunoblotting. (B) HSF1 maintains cellular chaperoning capacity. Denatured firefly luciferases were incubated with proteins extracted from HEK293T cells stably expressing scramble or HSF1-targeting shRNAs that were transfected with LacZ or FLAG-HSF1 plasmids (mean±SD, n=5, ANOVA). […] Levels of GFP and GR-GFP proteins were detected by immunoblotting. […] Following treatments with 20 μM U0126, 20 nM AZD6244, or 100 nM Bortezomib for 4 hrs, the chymotrypsin-like, trypsin-like, and caspase-like proteasomal activities in A2058 cells (D) and HEK293T cells (E) were measured in vitro using 25 μM Z-LLL-AMC, Boc-LRR-AMC, and Z-LLE-AMC substrates respectively (mean±SD, n=3, ANOVA). […] Lys48-specific protein ubiquitination was detected by immunoblotting in both detergent-soluble and -insoluble fractions. […] Lys48-specific protein ubiquitination was detected by immunoblotting in both detergent-soluble and -insoluble fractions of HEK293T cells that stably expressed scramble or MEK1/2-targeting shRNAs. […]
(In general: In western blotting, separated proteins are transferred to a membrane and probed.)

In the next test the test system is amyloid oligomers (AOs). Nature of the test: Amyloid oligomer ELISA (A11) in human tumor, immortalized and primary cells. Type of test: cell-based. The settings on record: 20 nM AZD6244, 100 nM Bortezomib, or both, 24 hr. The method, then: FIGS. 5A-Y show MEK and proteasome inhibition provoke protein aggregation and amyloidogenesis. (A-B) WM115 cells treated with 20 nM AZD6244, 100 nM Bortezomib, or both for 24 hr were stained with Lys48-specific ubiquitin antibodies. Arrowheads mark ubiquitin-positive aggregates. Scale bar: 10 μm. Amounts of aggregates per cell were quantitated using ImageJ (median, n≥100, ANOVA). (C-F) Following transfection with polyQ79 plasmids alone or with both polyQ79 and HSF1^S326D plasmids for one day, HEK293T cells were treated with inhibitors as described in (A-B). Cells were either analyzed for aggregate size or stained with 10 μM ThT. (G) Treated tumor cell lines were stained with 10 μM ThT. Geometric means were used to calculate fold changes in ThT fluorescence intensity and the log 2(FC) values were presented as a heat map. (H) HEK293T cells were transfected with LacZ or polyQ79 plasmid. Following treatments, AOs were quantitated by ELISA using A11 antibodies (mean±SD, n=3, ANOVA). (I) Intrinsic AOs were detected in human tumor cell lines (mean±SD, n=3, ANOVA). […] Amyloids were quantitated by ELISA (mean±SD, n=3, Student's t-test). […] AF formation was monitored by ThT binding (mean±SD, n=3, ANOVA). […] Amyloids were quantitated (mean±SD, n=3, Student's t-test). […] Viable cells were quantitated by CellTiter® blue (mean±SD, n=6, Student's t-test). […] Viable cells were quantitated (mean±SD, n=6, ANOVA). Relative changes in viable cells after treatment were calculated by normalizing the values of AZD6244-treated cells against the values of DMSO-treated cells at each time point. (U)-(W) Following treatments with 20 nM AZD6244, 100 nM Bortezomib, or both for 24 hr, AOs were quantitated in primary MEFs and human cells (mean±SD, n=3, ANOVA). (X and Y) Cells were treated with 50 μM Q-VD-OPh overnight and AOs were quantitated (mean±SD, n=3, Student's t-test). […]
To quantitate soluble amyloid prefibrillar oligomers, 20 μg soluble cellular proteins diluted in PBS were incubated for each well in a 96-well ELISA plate at 4° C. overnight followed by blocking (5% non-fat milk in PBS-T) at RT for 1 hr. […]
In general terms: An ELISA detects its analyte on a solid surface through an enzyme-linked reagent.

Turning to `CC(C)C[C@H](NC(=O)[C@H](Cc1ccccc1)NC(=O)c1cnccn1)B(O)O` [Bortezomib, bortezomib], the GR-GFP protein level entry with GR-GFP is on record as “caused GR-GFP accumulation”. In addition, the “AO levels in MCF10A cells” value with amyloid oligomers (AOs) (immortalized human mammary epithelial cells) is listed as “slight induction”. Further, the “AO levels in PHMC” value in the test with amyloid oligomers (AOs) (primary human mammary epithelial cells) is “no induction”. For the same compound, the “AO levels in MCF7 cells” value in the test on amyloid oligomers (AOs) (tumorigenic mammary epithelial cells) is “marked AO induction”.
